Experimental data taken from US12351580B2, “NLRP3 modulators” (Innate Tumor Immunity, Inc., priority 2017, dated 2025).

How the values were obtained:
TLR7 = target: T1, TLR7 (Homo sapiens, UniProt Q9NYK1); assay: In vitro human TLR7 binding reporter assay (HEK-Blue, NF-kB/AP1-inducible SEAP); type: cell-based; conditions: activity range symbols
T1 construct: host or cells: HEK-Blue cells (human HEK) co-expressing TLR7 and an NF-kB/AP1-inducible SEAP reporter
T1 sequence (Q9NYK1 27-1049): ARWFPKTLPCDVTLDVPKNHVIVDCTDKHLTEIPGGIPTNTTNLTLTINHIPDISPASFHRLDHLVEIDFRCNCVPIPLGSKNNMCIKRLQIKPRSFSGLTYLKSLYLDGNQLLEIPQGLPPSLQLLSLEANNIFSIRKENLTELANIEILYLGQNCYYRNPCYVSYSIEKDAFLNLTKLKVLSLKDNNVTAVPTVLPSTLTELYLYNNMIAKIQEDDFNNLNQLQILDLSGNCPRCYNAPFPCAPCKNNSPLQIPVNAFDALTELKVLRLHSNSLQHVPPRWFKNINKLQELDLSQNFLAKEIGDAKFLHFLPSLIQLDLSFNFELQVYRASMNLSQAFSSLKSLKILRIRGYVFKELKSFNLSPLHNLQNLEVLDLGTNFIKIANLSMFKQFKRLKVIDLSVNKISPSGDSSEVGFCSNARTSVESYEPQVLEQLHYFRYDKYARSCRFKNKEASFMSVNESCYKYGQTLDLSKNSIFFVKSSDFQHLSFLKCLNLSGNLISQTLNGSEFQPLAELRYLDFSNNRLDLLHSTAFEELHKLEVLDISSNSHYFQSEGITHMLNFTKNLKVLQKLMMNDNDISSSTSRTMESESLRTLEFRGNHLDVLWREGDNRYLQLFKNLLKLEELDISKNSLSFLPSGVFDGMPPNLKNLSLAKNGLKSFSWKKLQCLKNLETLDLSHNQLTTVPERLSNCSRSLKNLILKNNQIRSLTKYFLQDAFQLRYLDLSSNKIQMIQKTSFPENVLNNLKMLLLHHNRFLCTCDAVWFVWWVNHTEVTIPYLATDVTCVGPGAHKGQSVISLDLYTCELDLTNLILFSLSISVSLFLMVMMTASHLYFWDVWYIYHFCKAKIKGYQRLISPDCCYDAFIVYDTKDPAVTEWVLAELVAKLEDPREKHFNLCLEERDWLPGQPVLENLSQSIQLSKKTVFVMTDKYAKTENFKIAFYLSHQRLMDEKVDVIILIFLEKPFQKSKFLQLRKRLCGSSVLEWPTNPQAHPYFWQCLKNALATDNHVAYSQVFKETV
Procedure, shortened: (§1)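 Reporter cells are plated at 15,000 per well and rested 24 h. Next day, test compounds or DMSO are dispensed, followed by 18 h incubation at 37 °C, 5% CO2.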

TLR8 = target: T2, TLR8 (Homo sapiens, UniProt Q9NR97); assay: In vitro human TLR8 binding reporter assay (HEK-Blue, NF-kB/AP1-inducible SEAP); type: cell-based; conditions: activity range symbols
T2 construct: host or cells: HEK-Blue cells (human HEK) co-expressing TLR8 and an NF-kB/AP1-inducible SEAP reporter
T2 sequence (Q9NR97 27-1041): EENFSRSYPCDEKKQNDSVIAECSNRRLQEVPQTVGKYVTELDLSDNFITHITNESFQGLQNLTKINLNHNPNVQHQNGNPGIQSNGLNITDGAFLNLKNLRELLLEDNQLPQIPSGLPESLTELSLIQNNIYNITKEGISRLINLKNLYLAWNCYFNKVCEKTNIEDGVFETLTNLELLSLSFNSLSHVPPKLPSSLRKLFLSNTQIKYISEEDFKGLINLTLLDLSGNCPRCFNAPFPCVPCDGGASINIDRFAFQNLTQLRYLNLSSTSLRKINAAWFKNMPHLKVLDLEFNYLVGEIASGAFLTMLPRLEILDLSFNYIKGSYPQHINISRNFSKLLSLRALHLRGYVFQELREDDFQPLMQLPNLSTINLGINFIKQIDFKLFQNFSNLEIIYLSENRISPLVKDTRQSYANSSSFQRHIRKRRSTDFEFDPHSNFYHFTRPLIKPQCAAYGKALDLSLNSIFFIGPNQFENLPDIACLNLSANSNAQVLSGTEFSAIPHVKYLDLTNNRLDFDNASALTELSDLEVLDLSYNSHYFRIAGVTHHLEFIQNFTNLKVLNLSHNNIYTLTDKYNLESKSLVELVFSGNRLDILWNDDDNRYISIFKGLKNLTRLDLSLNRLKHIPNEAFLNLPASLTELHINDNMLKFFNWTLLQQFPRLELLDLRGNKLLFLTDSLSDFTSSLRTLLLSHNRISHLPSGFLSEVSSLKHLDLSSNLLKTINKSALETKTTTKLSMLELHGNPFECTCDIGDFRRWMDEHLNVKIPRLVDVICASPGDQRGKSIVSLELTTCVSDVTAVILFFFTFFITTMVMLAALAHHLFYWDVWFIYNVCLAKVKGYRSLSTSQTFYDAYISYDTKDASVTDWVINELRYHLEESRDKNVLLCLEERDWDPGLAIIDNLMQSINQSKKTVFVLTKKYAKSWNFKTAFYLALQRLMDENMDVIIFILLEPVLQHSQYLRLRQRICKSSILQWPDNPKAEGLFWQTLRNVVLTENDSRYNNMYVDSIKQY
Procedure, shortened: as §1

| EC50 (TLR7) [µM] | EC50 (TLR8) [µM] | SMILES |
| --- | --- | --- |
| > 100 | > 100 | CCN(C=O)Cc1nc2c(N)nc3cc(-c4cc[nH]n4)ccc3c2[nH]1 [Compound 379] |
| > 100 | > 100 | CCN(Cc1nc2c(N)nc3cc(-c4cc[nH]n4)ccc3c2[nH]1)C(=O)CN(C)C [Compound 383] |
| > 100 | > 100 | CCN(Cc1nc2c(N)nc3cc(-c4ccn(C)n4)ccc3c2[nH]1)C(=O)OC(C)(C)C [Compound 393] |
| > 100 | > 100 | CCN(Cc1nc2c(N)nc3cc(-c4ccsc4)ccc3c2[nH]1)C(=O)OC(C)(C)C [Compound 397] |
| > 100 | > 100 | CCNCc1nc2c(N)nc3cc(-n4cccn4)ccc3c2[nH]1 [Compound 398] |
| > 100 | > 100 | CCNCc1nc2c(N)nc3cc(-c4cccs4)ccc3c2[nH]1 [Compound 399] |
| > 100 | > 100 | CCNCc1nc2c(N)nc3cc(-c4ccsc4)ccc3c2[nH]1 [Compound 400] |
| > 100 | > 100 | CNCc1nc2c(N)nc3cc(-c4cc[nH]n4)ccc3c2[nH]1 [Compound 401] |
| > 100 | > 100 | CNCc1nc2c(N)nc3cc(-n4cccn4)ccc3c2[nH]1 [Compound 402] |
| > 100 | > 100 | COc1ccc(Cn2c(CN3CCN(C)C3=O)nc3c(N)nc4cc(-c5cc[nH]n5)ccc4c32)cc1 [Compound 403] |
| > 100 | > 100 | COc1ccc(Cn2c(CN3C(=O)OCC3COCc3ccccc3)nc3c(N)nc4cc(-c5cc[nH]n5)ccc4c32)cc1 (stereo not drawn) [Compound 404] |
| > 100 | > 100 | COC(=O)N(C)Cc1nc2c(N)nc3cc(-c4cc[nH]n4)ccc3c2[nH]1 [Compound 405] |
| > 100 | > 100 | CCN(Cc1nc2c(N)nc3cc(-c4cc[nH]n4)ccc3c2[nH]1)C(=O)OC [Compound 406] |
| > 100 | > 100 | Nc1nc2cc(-c3cc[nH]n3)ccc2c2[nH]c(CN3C[C@@H](c4ccccc4)CC3=O)nc12 [Compound 407] |
| > 100 | > 100 | Nc1nc2cc(-c3cc[nH]n3)ccc2c2[nH]c(CN3C[C@H](c4ccccc4)CC3=O)nc12 [Compound 408] |
| > 100 | > 100 | COc1ccc(Cn2c(CN3C(=O)OCC3c3ccccc3)nc3c(N)nc4cc(-c5cc[nH]n5)ccc4c32)cc1 (stereo not drawn) [Compound 409] |
| > 100 | > 100 | COc1ccc(Cn2c(Cn3cnccc3=O)nc3c(N)nc4cc(-c5cc[nH]n5)ccc4c32)cc1 [Compound 414] |
| > 100 | > 100 | CCN(Cc1nc2c(N)nc3cc(-c4cc[nH]n4)ccc3c2[nH]1)C(=O)C1COC1 [Compound 417] |
| > 100 | > 100 | CCN(Cc1nc2c(N)nc3cc(-c4ccsc4)ccc3c2[nH]1)C(C)=O [Compound 419, N-((4-Amino-7-(thiophen-3-yl)-1H-imidazo[4,5-c]quinolin-2-yl)methyl)-N-ethylacetamide] |
| > 100 | > 100 | CCN(Cc1nc2c(N)nc3cc(-c4cc[nH]n4)ccc3c2n1C)C(=O)OC(C)(C)C [Compound 420] |

The next lines start with the compound.

| SMILES | EC50 (TLR7) [µM] | EC50 (TLR8) [µM] |
| --- | --- | --- |
| Nc1nc2cc(-c3cncc(F)c3)ccc2c2[nH]c(CN3CCCC3=O)nc12 [Compound 331, 1-[[4-amino-7-(5-fluoropyridin-3-yl)-1H-imidazo[4,5-c]quinolin-2-yl]methyl]pyrrolidin-2-one] | > 100 | > 100 |
| Nc1nc2cc(C3CCCCCC3)ccc2c2[nH]c(CN3CCCC3=O)nc12 [Compound 332, 1-[(4-amino-7-cycloheptyl-1H-imidazo[4,5-c]quinolin-2-yl)methyl]pyrrolidin-2-one] | > 100 | > 100 |
| Nc1nc2cc(-c3cccnc3)ccc2c2[nH]c(CN3CC(c4ccccc4)CC3=O)nc12 (stereo not drawn) [Compound 333, 1-[(4-amino-7-pyridin-3-yl-1H-imidazo[4,5-c]quinolin-2-yl)methyl]-4-phenylpyrrolidin-2-one] | > 100 | > 100 |
| COC(=O)CCCn1c(CN2CCCC2=O)nc2c(N)nc3ccccc3c21 [Compound 335] | > 100 | > 100 |
| CN(C)C(=O)CCCn1c(CN2CCCC2=O)nc2c(N)nc3cc(Cl)ccc3c21 [Compound 337] | > 100 | > 100 |
| CN(C)C(=O)CCCn1c(CN2CCCC2=O)nc2c(N)nc3cc(-c4cccnc4)ccc3c21 [Compound 340] | > 100 | > 100 |
| COC(=O)CCCn1c(CN2CCCC2=O)nc2c(N)nc3cc(Br)ccc3c21 [Compound 341] | > 100 | > 100 |
| COC(=O)CCCn1c(CN2CCCC2=O)nc2c(N)nc3cc(-c4cccnc4)ccc3c21 [Compound 342] | > 100 | > 100 |
| Nc1nc2ccccc2c2[nH]c(CN3CCCCC3=O)nc12 [Compound 346] | > 100 | > 100 |
| COC(=O)CCCn1c(CN2CCCCC2=O)nc2c(N)nc3ccccc3c21 [Compound 347] | > 100 | > 100 |
| CN(C)Cc1nc2c(N)nc3cc(-c4cc[nH]n4)ccc3c2[nH]1 [Compound 348] | > 100 | > 100 |
| CCN(C)Cc1nc2c(N)nc3cc(-c4cc[nH]n4)ccc3c2[nH]1 [Compound 349] | > 100 | > 100 |
| Nc1nc2cc(-n3cccn3)ccc2c2[nH]c(CN3C[C@@H](c4ccccc4)CC3=O)nc12 [Compound 357] | > 100 | > 100 |
| Nc1nc2cc(-n3cccn3)ccc2c2[nH]c(CN3C[C@H](c4ccccc4)CC3=O)nc12 [Compound 358] | > 100 | > 100 |
| Nc1nc2cc(-c3cc[nH]n3)ccc2c2[nH]c(CN3C(=O)OCC3c3ccccc3)nc12 (stereo not drawn) [Compound 363] | > 100 | > 100 |
| Nc1nc2cc(-c3cc[nH]n3)ccc2c2[nH]c(CN3CCOC3=O)nc12 [Compound 365] | > 100 | > 100 |
| CN1CCN(Cc2nc3c(N)nc4cc(-c5cc[nH]n5)ccc4c3[nH]2)C1=O [Compound 368] | > 100 | > 100 |
| CN(Cc1nc2c(N)nc3cc(-c4cc[nH]n4)ccc3c2[nH]1)C(=O)CO [Compound 370] | > 100 | > 100 |
| CN(Cc1nc2c(N)nc3cc(-c4cc[nH]n4)ccc3c2[nH]1)C(=O)CN [Compound 372] | > 100 | > 100 |
| CN(C)C(=O)N(C)Cc1nc2c(N)nc3cc(-c4cc[nH]n4)ccc3c2[nH]1 [Compound 375] | > 100 | > 100 |
| CN(Cc1nc2c(N)nc3cc(-c4cc[nH]n4)ccc3c2[nH]1)C(=O)c1ccccc1 [Compound 376] | > 100 | > 100 |
| CN(Cc1nc2c(N)nc3cc(-c4cc[nH]n4)ccc3c2[nH]1)C(=O)c1nccs1 [Compound 377] | > 100 | > 100 |
